Test results taken from patent US9957253B2, “Triaminopyrimidine compounds useful for preventing or treating malaria” (MMV MEDICINES FOR MALARIA VENTURE, priority 2014, dated 2018).
Counter-ions that a name gives are not always drawn. Like-named read-outs stand apart in the source and are kept apart here.

Assays:
hepatocytes [1] = test: Metabolic stability assay (hepatocyte Clint), rat; format: in vitro ADME; details: 1 μM compound
Method: (§1) Metabolic Stability Assay (Rat/Human Hepatocyte Clint)
(§2) Viability of cryopreserved hepatocytes was determined using trypan blue and the cell concentration was adjusted to 10^6 cells per mL with Leibovitz L-15 Buffer. 1 μM compound (in Acetonitrile; 0.01% DMSO) was incubated with 500 μL of hepatocytes (1 million cells per mL) in a NUNC plate. Reaction was stopped at different time points (0, 5, 15, 30, 60, 90 and 120 min) by addition of 3 volumes of chilled acetonitrile to 100 μL of reaction mixture and centrifuged at 4° C. for 15 min. Supernatants were analyzed using LC-MS/MS for substrate depletion.

hepatocytes [2] = test: Metabolic stability assay (hepatocyte Clint), human; format: in vitro ADME; details: 1 μM compound
Method: as §1, §2

human CYP 2D6 = biological target: T1, human CYP 2D6 (Homo sapiens, UniProt P10635); test: CYP inhibition assay, CYP 2D6; format: in vitro ADME
T1 construct: Mixture of 180 μL of 20 mg/mL HLM and 90 μL of substrate cocktail solution; from tissue; host or cells: human liver microsomes (HLM)
T1 sequence (P10635 whole entry): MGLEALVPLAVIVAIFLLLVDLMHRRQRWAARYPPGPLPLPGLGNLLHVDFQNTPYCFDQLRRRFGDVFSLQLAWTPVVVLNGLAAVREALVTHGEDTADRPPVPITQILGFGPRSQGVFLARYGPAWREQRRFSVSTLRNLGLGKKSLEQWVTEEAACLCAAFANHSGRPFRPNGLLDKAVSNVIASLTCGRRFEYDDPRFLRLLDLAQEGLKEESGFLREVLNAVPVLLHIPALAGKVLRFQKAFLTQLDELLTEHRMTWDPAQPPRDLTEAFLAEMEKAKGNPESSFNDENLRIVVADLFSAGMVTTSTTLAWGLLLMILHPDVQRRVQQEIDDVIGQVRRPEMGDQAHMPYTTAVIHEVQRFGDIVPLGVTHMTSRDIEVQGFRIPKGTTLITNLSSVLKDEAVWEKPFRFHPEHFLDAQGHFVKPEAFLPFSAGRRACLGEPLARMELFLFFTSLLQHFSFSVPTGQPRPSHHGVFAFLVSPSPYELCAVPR
Method: (§3) This study was conducted using specific substrates for 5 major human CYP isozymes. These substrates were used as a cocktail (phenacetin, diclofenac, S-mephenytoin, bufuralol and midazolam which are predominantly metabolised by CYP 1A2, 2C9, 2C19, 2D6 and 3A4/5, respectively) at concentrations equivalent to their respective Km values. LC-MS-MS (MRM mode) was used to follow the formation of the CYP specific metabolites. A decrease in the formation of the metabolites in peak area to vehicle control was used to calculate the IC50 value. […] Test compound was used at 6 different concentrations ([…]) to estimate IC50.
(§4) The incubation was carried out in 96 deep well plates. Mixture of 180 μL of 20 mg/mL HLM and 90 μL of substrate cocktail solution was added to 15840 μL of phosphate buffer and 179 μL of this mixture was mixed with 1 μL of the test compound, inhibitor cocktail solution or vehicle in each well. The final concentration of DMSO:ACN in the assay mix was 0.3:0.7% v/v. The incubation plate was placed into the water bath and pre-warmed at 37° C. for 5 min before the reactions were started by the addition of 20 μL of 10 mmol/L NADPH solution in phosphate buffer. After the addition of NADPH, the incubation plate was incubated at 37° C. for a further 5 min. The reaction was quenched by the addition of 1 volume (200 μL) of cold ACN containing 3% formic acid and 40 nmol/L verapamil. The plates were kept on ice for 20 min and then centrifuged at 4000 rpm for 30 min to precipitate protein. The supernatant 180 μL was transferred to the analysis plate for LC/MS/MS analysis.

human CYP 1A2 = biological target: T2, human CYP 1A2 (Homo sapiens, UniProt P05177); test: Time dependent CYP inhibition assay, CYP 1A2; format: in vitro ADME
T2 sequence (P05177 1-516): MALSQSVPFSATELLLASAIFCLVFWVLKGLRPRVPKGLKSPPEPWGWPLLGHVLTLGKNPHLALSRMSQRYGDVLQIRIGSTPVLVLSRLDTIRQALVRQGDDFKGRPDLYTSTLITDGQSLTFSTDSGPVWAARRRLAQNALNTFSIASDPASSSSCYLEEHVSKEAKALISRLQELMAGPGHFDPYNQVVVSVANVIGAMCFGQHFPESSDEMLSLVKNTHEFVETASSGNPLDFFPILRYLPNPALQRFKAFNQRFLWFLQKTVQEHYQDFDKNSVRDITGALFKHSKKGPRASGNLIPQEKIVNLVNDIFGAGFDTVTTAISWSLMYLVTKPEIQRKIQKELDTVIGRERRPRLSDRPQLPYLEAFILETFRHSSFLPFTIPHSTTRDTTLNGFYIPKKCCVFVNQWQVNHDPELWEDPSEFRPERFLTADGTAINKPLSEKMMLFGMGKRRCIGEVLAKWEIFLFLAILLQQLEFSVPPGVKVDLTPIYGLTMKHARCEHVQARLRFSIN

human CYP 2C19 = biological target: T3, human CYP 2C19 (Homo sapiens, UniProt P33261); test: CYP inhibition assay, CYP 2C19; format: in vitro ADME
T3 construct: Mixture of 180 μL of 20 mg/mL HLM and 90 μL of substrate cocktail solution; from tissue; host or cells: human liver microsomes (HLM)
T3 sequence (P33261 whole entry): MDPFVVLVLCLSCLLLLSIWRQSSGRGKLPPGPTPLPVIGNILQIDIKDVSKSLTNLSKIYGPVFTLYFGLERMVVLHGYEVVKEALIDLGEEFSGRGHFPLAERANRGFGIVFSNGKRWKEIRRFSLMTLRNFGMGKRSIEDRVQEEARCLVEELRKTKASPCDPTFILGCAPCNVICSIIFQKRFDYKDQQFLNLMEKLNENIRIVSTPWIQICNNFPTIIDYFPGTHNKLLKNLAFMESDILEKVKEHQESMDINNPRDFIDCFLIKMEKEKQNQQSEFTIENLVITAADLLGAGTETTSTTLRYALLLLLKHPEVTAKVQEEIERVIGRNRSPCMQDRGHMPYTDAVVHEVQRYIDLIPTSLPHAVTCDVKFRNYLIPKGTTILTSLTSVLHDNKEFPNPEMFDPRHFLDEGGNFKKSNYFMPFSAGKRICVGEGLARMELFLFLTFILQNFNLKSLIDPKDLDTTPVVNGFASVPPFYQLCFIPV
Method: as §3, §4

Plasmodium berghei = test: In vivo efficacy in the mouse malaria model (four day suppressive test); details: P. berghei infected mice, growth of parasites in blood
Method: In Vivo Efficacy in the Mouse Malaria Model In vivo efficacy against blood stages was measured in mice infected with Plasmodium berghei after four (once daily) days of dosing by oral route. Detailed protocol for this four day suppressive test is described in Fidock et al 2004, Nature Reviews Drug Discovery (3), p 509.

[3] = Prediction of hepatic blood clearance (well stirred model), rat
CYP3A4 = CYP3A4 (Homo sapiens, UniProt P08684); test: Time dependent CYP inhibition assay, CYP 3A4; format: in vitro ADME
Chain of CYP3A4 (P08684 whole entry): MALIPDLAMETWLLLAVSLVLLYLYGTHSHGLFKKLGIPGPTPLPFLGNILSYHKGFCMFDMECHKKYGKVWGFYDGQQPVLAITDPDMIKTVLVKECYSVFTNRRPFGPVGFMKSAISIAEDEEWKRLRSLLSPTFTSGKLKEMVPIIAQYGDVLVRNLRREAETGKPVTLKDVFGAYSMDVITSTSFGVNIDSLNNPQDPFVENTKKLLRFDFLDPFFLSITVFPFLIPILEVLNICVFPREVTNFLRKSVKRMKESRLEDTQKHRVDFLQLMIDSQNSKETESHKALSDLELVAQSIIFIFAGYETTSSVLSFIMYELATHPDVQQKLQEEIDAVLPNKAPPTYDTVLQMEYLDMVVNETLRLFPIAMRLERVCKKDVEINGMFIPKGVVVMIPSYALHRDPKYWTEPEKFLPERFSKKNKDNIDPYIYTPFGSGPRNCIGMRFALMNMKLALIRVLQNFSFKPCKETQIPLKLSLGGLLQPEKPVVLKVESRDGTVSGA

[4] = Plasma protein binding assay (equilibrium dialysis), rat; format: in vitro ADME
Method: Plasma Protein Binding Assay
Protein binding is measured using the equilibrium dialysis technique. Compound is added to 10% plasma giving a concentration of 20 μM and dialysed with isotonic buffer for 18 hours at 37° C. The plasma and buffer solutions are analysed using generic LCUVMS and the first apparent binding constant for the compound derived. The binding constant is then used to determine the % free in 100% plasma.

[5] = tested on: chloroquine-resistant K1 strain of P. falciparum; test: In vitro antiplasmodial activity (SYBR I), K1 strain; format: cell-based, Plasmodium falciparum; details: Plasmodium falciparum
Method: Measuring In Vitro Antiplasmodial Activity
The test samples were tested in duplicate on two separate occasions against chloroquine sensitive NF54 (MRA-1000, MR4, ATCC, Manassas, Va.) and chloroquine-resistant K1 strains of P. falciparum. A modified method of Trager and Jensen was employed to maintain continuous in vitro cultures of asexual blood stages of P. falciparum (Trageret al., 1976, Science, 193, 673-675). Quantitative assessment of antiplasmodial activity in vitro was determined using the SYBR I method as described earlier (Johnson et al., 2007, Antimicrob. Agents Chemother., 51, 1926-1933).
The percent inhibition with respect to the drug-free control was plotted against the logarithm of drug concentration. The growth inhibition curves were fitted by nonlinear regression using the sigmoidal dose-response (variable slope) formula to yield the concentration-response curves. […] Chloroquine diphosphate (CQ) (Sigma), artesunate (Sigma), and pyrimethamine were used as reference drugs in all experiments.

[6] = human liver microsomes, substrate cocktail, read-out: IC50 CYP 2D6
[7] = human liver microsomes, substrate cocktail, read-out: IC50 CYP 2C19
[8] = 3 mg/kg oral once daily for four days
[9] = 10 mg/kg oral once daily for four days
[10] = 30 mg/kg oral once daily for four days
[11] = K1 strain, chloroquine-resistant, read-out: Pf IC50—K1

Row | Compound | Hep. Clint (hepatocytes [1]) [μl/min/1E6] | Hep. Clint (hepatocytes [2]) [μl/min/1E6] | IC50 (human CYP 2D6; [6]) [µM] | IC50 (human CYP 1A2) [µM] | IC50 (human CYP 2C19; [7]) [µM] | % Inhibition (Plasmodium berghei; [8]) [%] | % Inhibition (Plasmodium berghei; [9]) [%] | % Inhibition (Plasmodium berghei; [10]) [%] | Predicted CLh blood [3] [mL/min/kg] | IC50 (CYP3A4) [µM] | Fup [4] | IC50 [5, 11] [µM] | % Inhibition (Plasmodium berghei; 15 mg/kg oral once daily for four days) [%] | IC50 (human CYP 2D6) [µM] | IC50 (human CYP 2C19) [µM] | IC50 ([5]; K1, read-out: Pf IC50—K1) [µM]
1 | Cc1nc(Nc2ncc(N3CCN(C)[C@H](C)C3)c(Nc3cc(C)n(C)n3)n2)cc(C2CC2)c1F [Example 13, (R)—N2-(4-cyclopropyl-5-fluoro-6-methylpyridin-2-yl)-N4-(1,5-dimethyl-1H-pyrazol-3-yl)-5-(3,4-dimethylpiperazin-1-yl)pyrimidine-2,4-diamine] | 11.3 | 3.1 | > 30 | > 56 | > 30 | 0 | 42 | 100 | 18.80 | > 56 | 0.04 | 0.015 | – | – | – | –
2 | Cc1nc(Nc2ncc(N3CCN[C@H](C)C3)c(Nc3cnn(C)n3)n2)cc(C2CC2)c1Cl [Example 10, (R)—N2-(5-chloro-4-cyclopropyl-6-methylpyridin-2-yl)-N4-(2-methyl-2H-1,2,3-triazol-4-yl)-5-(3-methylpiperazin-1-yl)pyrimidine-2,4-diamine dihydochloride] | 8.3 | 1.8 | > 30 | > 56 | > 30 | – | 60 | 100 | 16.10 | > 56 | 0.04 | 0.019 | 75 | – | – | –
3 | CCc1cc(Nc2ncc(N3CCN[C@H](C)C3)c(Nc3cc(C)n(C)n3)n2)nc(C)c1F [Example 7, (R)—N4-(1,5-dimethyl-1H-pyrazol-3-yl)-N2-(4-ethyl-5-fluoro-6-methylpyridin-2-yl)-5-(3-methylpiperazin-1-yl)pyrimidine-2,4-diamine dihydrochloride] | 5.6 | 2.7 | – | > 56 | – | 6 | 28 | 100 | 24.20 | > 56 | 0.06 | – | – | > 30 | > 30 | 0.045
